“Also recorded” adds a separate entry of the source. Where two headings read alike, the source gives them in different places.
Columns and labels:
LtPLRh1 (LtCES1) [1] = target: T1, LtPLRh1 (LtCES1) (Larrea tridentata, UniProt V5NR15); test: LtPLRh1 (LtCES1) chavicol/eugenol synthase assays, kinetic parameters for monolignol ester substrates; format: biochemical; conditions: for Km values / Vmax values: PLR homologue in the creosote bush; for Vmax / kcat: Table 2, LtPLRh1 apparent
Protocol: (§1) Enzymatic assays. All assays were performed at 30° C. in 250 μl of the corresponding buffered solutions (at 100 mM buffer concentration) containing 0.5 μg […]1) Rh1 and 1.0 mM NADPH, and were terminated by addition of 25 μl glacial acetic acid and freezing. […] Assays were carried out for 1 to 120 min; controls included both boiled enzyme extracts and omission of substrates. Kinetic parameters (Km and Vmax): Three sets of triplicate assays were carried out for 5 min in Bis-Tris propane buffer at pH 7.55, and contained different concentrations of p-coumaryl acetate (48), p-coumaryl coumarate (50) or coniferyl acetate (49) (3.2 μM-1 mM).

ObEGS1 = target: T2, ObEGS1 (Ocimum basilicum, UniProt Q15GI4); conditions: cited from earlier work; for Vmax / kcat: ObEGS1
T2 sequence (Q15GI4 1-314): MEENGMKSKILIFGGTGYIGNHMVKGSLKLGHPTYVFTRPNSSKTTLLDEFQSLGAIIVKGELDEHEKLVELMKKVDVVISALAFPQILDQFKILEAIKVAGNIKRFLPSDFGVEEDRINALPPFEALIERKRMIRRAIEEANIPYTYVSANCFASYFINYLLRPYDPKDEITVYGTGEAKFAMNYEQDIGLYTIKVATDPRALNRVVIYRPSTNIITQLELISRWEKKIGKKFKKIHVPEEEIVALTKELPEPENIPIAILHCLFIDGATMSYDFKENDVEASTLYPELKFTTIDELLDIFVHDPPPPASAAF

PhIGS1 = target: T3, PhIGS1 (Petunia hybrida, UniProt Q15GI3); conditions: cited from earlier work; for Vmax / kcat: PhIGS1
T3 sequence (Q15GI3 1-323): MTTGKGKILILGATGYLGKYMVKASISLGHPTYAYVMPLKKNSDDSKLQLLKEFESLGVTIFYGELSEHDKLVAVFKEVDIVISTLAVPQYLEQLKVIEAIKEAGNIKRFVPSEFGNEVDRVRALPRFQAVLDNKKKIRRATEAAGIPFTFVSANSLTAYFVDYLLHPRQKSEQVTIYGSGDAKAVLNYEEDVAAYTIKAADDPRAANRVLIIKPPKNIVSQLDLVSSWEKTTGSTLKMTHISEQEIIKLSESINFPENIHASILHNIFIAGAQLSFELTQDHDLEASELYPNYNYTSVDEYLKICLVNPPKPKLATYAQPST

[2] = system: basil CS/ES and petunia IES; conditions: range over basil CS/ES and petunia IES, cited from earlier work
LtPLRh1 (LtCES1) [3] = target: T1, LtPLRh1 (LtCES1); test: In vitro test of LtPLRh1 with PLR, PCBER and IFR substrates; format: biochemical
PLR_Tp1 = target: T4, PLR_Tp1 (Thuja plicata, UniProt Q9LD14); conditions: Kim et al., manuscript in preparation (34), cited from earlier work
T4 sequence (Q9LD14 1-313): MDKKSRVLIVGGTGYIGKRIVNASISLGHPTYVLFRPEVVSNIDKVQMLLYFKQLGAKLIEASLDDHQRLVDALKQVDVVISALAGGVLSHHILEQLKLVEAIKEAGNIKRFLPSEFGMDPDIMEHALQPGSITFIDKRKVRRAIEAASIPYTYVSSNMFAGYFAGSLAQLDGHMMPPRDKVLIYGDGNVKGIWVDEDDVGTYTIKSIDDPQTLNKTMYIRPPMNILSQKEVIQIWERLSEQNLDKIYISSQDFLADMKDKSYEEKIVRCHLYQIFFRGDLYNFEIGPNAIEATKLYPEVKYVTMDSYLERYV

[4] = substrate: O=C(/C=C/c1ccc(O)cc1)OC/C=C/c1ccc(O)cc1; test: LtPLRh1 (LtCES1) chavicol/eugenol synthase assays, kinetic parameters for monolignol ester substrates; format: biochemical, Larrea tridentata; conditions: other: Table 1, Bis-Tris propane pH 7.55, 30° C., 1.0 mM NADPH, apparent values
Protocol: as §1

[5] = substrate: CC(=O)OC/C=C/c1ccc(O)cc1; test: as above; format: biochemical, Larrea tridentata; conditions: other: Table 1, Bis-Tris propane pH 7.55, 30° C., 1.0 mM NADPH, apparent values
Protocol: as §1

[6] = substrate: COc1cc(/C=C/COC(C)=O)ccc1O; test: as above; format: biochemical, Larrea tridentata; conditions: other: Table 1, Bis-Tris propane pH 7.55, 30° C., 1.0 mM NADPH, apparent values
Protocol: as §1

[7] = Characterisation of recombinant LtPLRh1: pH optimum and efficiency versus homologues; format: biochemical, Larrea tridentata; conditions: from previously reported kinetic parameters (26)
Protocol: Enzymatic assays. All assays were performed at 30° C. in 250 μl of the corresponding buffered solutions (at 100 mM buffer concentration) containing 0.5 μg LtPL LtPLRh1 (LtCES1) Rh1 and 1.0 mM NADPH, and were terminated by addition of 25 μl glacial acetic acid and freezing. Chavicol/eugenol synthase activity assays were individually performed in Bis-Tris propane buffer (pH 7.55) containing 0.4 mM p-coumaryl coumarate (50), p-coumaryl acetate (48) or coniferyl acetate (49). Assays were carried out for 1 to 120 min; controls included both boiled enzyme extracts and omission of substrates.
Kinetic parameters (Km and Vmax): Three sets of triplicate assays were carried out for 5 min in Bis-Tris propane buffer at pH 7.55, and contained different concentrations of p-coumaryl acetate (48), p-coumaryl coumarate (50) or coniferyl acetate (49) (3.2 μM-1 mM).

O=C(/C=C/c1ccc(O)cc1)OC/C=C/c1ccc(O)cc1 [p-coumaryl coumarate (50), p-coumaryl coumarate]
Km values (LtPLRh1 (LtCES1) [1]): a few hundred | Vmax values (LtPLRh1 (LtCES1) [1]): a few hundred | Vmax (LtPLRh1 (LtCES1) [1]): 75 pkat/μg | kcat (LtPLRh1 (LtCES1) [1]): 2.55 s⁻¹

COc1cc(/C=C/COC(C)=O)ccc1O [coniferyl acetate (49), coniferyl acetate]
Km (ObEGS1; Table 1, ObEGS1, Koeduka et al. 2006): 5100 µM | Vmax (ObEGS1; Table 1): 20 pkat μg^−1 prot. | kcat (ObEGS1; Table 1): 0.7 s⁻¹ | Km (ObEGS1; Table 2, ObEGS1, as reported in (26)): 5100 µM | Vmax (ObEGS1; Table 2): 20 pkat/μg | kcat (ObEGS1; Table 2): 0.7 s⁻¹ | Km (PhIGS1; Table 1, PhIGS1, Koeduka et al. 2006): 1600 µM | Vmax (PhIGS1; Table 1): 7 pkat μg^−1 prot. | kcat (PhIGS1; Table 1): 0.3 s⁻¹ | Km (PhIGS1; Table 2, PhIGS1, as reported in (26)): 1600 µM | Vmax (PhIGS1; Table 2): 7 pkat/μg | kcat (PhIGS1; Table 2): 0.3 s⁻¹ | efficiency of reduction by LtPLRh1 relative to reported homologues in basil and petunia (LtPLRh1 (LtCES1) [1]): > 100 fold | Km values (LtPLRh1 (LtCES1) [1]): a few hundred | Vmax values (LtPLRh1 (LtCES1) [1]): a few hundred | Vmax (LtPLRh1 (LtCES1) [1]): 190 pkat/μg | kcat (LtPLRh1 (LtCES1) [1]): 6.46 s⁻¹ | Vmax [2]: 7-20 pkat μg^−1 protein | Km ([2]; read-out: substrate affinities (Km)): 1600 to 5100 µM

O=c1c(-c2ccc(O)cc2)coc2cc(O)cc(O)c12 [genistein (73), genistein]
activity of LtPLRh1 towards the compound as substrate (LtPLRh1 (LtCES1) [3]): at best marginal activity; also recorded: do not serve as substrates

CC(=O)OC/C=C/c1ccc(O)cc1 [p-coumaryl acetate (48), p-coumaryl acetate]
Km values (LtPLRh1 (LtCES1) [1]): a few hundred | Vmax values (LtPLRh1 (LtCES1) [1]): a few hundred | Vmax (LtPLRh1 (LtCES1) [1]): 200 pkat/μg | kcat (LtPLRh1 (LtCES1) [1]): 6.80 s⁻¹

COc1cc([C@H]2OC[C@@H]3C(c4cc(OC)c(O)c(OC)c4)OC[C@H]23)ccc1O (some centres unmarked) [medioresinol (69), medioresinol]
PLR-catalyzed reduction (serves as substrate) (PLR_Tp1): uses several p-hydroxylated phenylpropanoid substrates | PLR-catalyzed reduction (serves as substrate) (PLR_Tp1; listed as Medioresinol (69)): additional PLR substrates

pinoresinol [pinoresinol (54)]
activity of LtPLRh1 towards the compound as substrate (LtPLRh1 (LtCES1) [3]): at best marginal activity | PLR-catalyzed reduction (serves as substrate) (PLR_Tp1): uses several p-hydroxylated phenylpropanoid substrates

C/C=C/c1cc(OC)c2c(c1)[C@H](C)[C@@H](c1ccc(O)c(OC)c1)O2 [licarin A (64), licarin A]
activity of LtPLRh1 towards the compound as substrate (LtPLRh1 (LtCES1) [3]): at best marginal activity

COc1cc([C@H]2OC[C@H]3[C@@H]2CO[C@@H]3c2cc(OC)c(O)c(OC)c2)cc(OC)c1O [syringaresinol (70), syringaresinol]
PLR-catalyzed reduction (serves as substrate) (PLR_Tp1): uses several p-hydroxylated phenylpropanoid substrates; also recorded: additional PLR substrates

C[C@@H]1[C@H](C)[C@@H](c2ccc(O)cc2)O[C@@H]1c1ccc(O)cc1 [larreatricin (62), larreatricin]
activity of LtPLRh1 towards the compound as substrate (LtPLRh1 (LtCES1) [3]): at best marginal activity

c1cc2c(cc1[C@H]1OC[C@H]3[C@@H]1CO[C@@H]3c1ccc3c(c1)OCO3)OCO2 [sesamin (71), sesamin]
PLR-catalyzed reduction (serves as substrate) (PLR_Tp1): fails to reduce; also recorded: does not undergo PLR-catalyzed reduction

COc1cc(C2Oc3c(OC)cc(/C=C/CO)cc3C2CO)ccc1O (centres unmarked) [dehydrodiconiferyl alcohol (56), dehydrodiconiferyl alcohol]
activity of LtPLRh1 towards the compound as substrate (LtPLRh1 (LtCES1) [3]): at best marginal activity

COc1ccc(-c2coc3cc(O)cc(O)c3c2=O)cc1 [biochanin A (74), biochanin A]
activity of LtPLRh1 towards the compound as substrate (LtPLRh1 (LtCES1) [3]): at best marginal activity; also recorded: do not serve as substrates

COc1cc([C@H]2O[C@@H](c3ccc(O)c(OC)c3)[C@H](C)[C@@H]2C)ccc1O [nectandrin B (72), nectandrin B]
activity of LtPLRh1 towards the compound as substrate (LtPLRh1 (LtCES1) [3]): at best marginal activity; also recorded: do not serve as substrates

B1: LtPLRh1 (LtCES1) (Larrea tridentata) (protein)
chain: MAQKSKILIIGGTGYIGKFVVEASAKAGRPTFALVRESTVSDPVKGKLIANFKNLGVNILHGDLNDHESLVKAIKKVDVVISTVGNFQIADQVKIIAAIKAAGNVKRFFPSEFGNDVDRTHAVEPAKSTFEMKAQLRRTIEAEGIPYTYVSSNFFAGYFLPVLGQVGVTAPPRDKVTILGDGNQKAVFNKEDDIGTYTIRAADDPRTLNKILYIRPPRNTYSMNELVALWEKKIGKTLEKTYVPEEQLLKNIQEAEIPWNVVLAINHSVFVKGDHTNFAIKPSFGVEASELYPDVKYTTVEEYLSQFV
Km [4]: 210 µM | Vmax [4]: 4.5 µmol/min/mg | kcat [4]: 2.55 s⁻¹ | kcat/Km [4]: 12000 M⁻¹ s⁻¹ | Km [5]: 350 µM | Vmax [5]: 12 µmol/min/mg | kcat [5]: 6.8 s⁻¹ | kcat/Km [5]: 19500 M⁻¹ s⁻¹ | Km [6]: 290 µM | Vmax [6]: 11.4 µmol/min/mg | kcat [6]: 6.46 s⁻¹ | kcat/Km [6]: 22000 M⁻¹ s⁻¹

B2: LtPLRh1: pinoresinol-lariciresinol reductase homologue from Larrea tridentata, chavicol/eugenol synthase, SEQ ID NO:2, recombinant 34 kDa (protein)
chain: B1 chain
modifications: Larrea tridentate
efficiency/activity relative to the enzymes reported in basil and petunia [7]: > 100 fold | efficiency/activity relative to the enzymes reported in basil and petunia ([7]; listed as LtPLRh1 (LtCES1)): over 100 fold

Source: patent US9131648B2, “Genes encoding chavicol/eugenol synthase from the creosote bush Larrea tridentata” (Washington State University, priority 2006, dated 2015)
